Data on 16 compounds can be found in patent US4218443A, “Polyether ionophores as antiobesity and hypotriglyceridemic agents” (Hoffmann-La Roche Inc., priority 1979, dated 1980).

One experiment addresses T1, human pancreatic lipase (Homo sapiens, UniProt P16233).
T1 construct: Human pancreatic juice was obtained from a patient with acute pancreatitis; from tissue; host or cells: human pancreatic juice from the cannulated duct of a patient with acute pancreatitis; gift of Dr. George Nardi, Massachusetts General Hospital
T1 sequence (P16233 17-465): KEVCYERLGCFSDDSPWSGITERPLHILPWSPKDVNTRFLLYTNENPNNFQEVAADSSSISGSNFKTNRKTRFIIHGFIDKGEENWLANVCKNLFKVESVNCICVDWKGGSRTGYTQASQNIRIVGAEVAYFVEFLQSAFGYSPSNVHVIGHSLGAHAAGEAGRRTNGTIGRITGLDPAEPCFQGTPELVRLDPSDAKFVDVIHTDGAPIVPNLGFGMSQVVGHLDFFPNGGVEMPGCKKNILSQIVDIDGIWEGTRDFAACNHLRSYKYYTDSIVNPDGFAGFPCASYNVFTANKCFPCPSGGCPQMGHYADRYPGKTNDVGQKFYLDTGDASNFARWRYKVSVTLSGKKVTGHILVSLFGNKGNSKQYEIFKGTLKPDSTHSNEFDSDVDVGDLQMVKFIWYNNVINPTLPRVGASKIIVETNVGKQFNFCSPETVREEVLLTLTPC
Put plainly: In vitro titrimetric (Radiometer pH-stat) pancreatic lipase assay, Dixon plots. Type of experiment: biochemical. The conditions noted are these: in vitro Radiometer assay, read-out: Inhibition constants for bromolasalocid inhibition of human pancreatic lipase.

Experiment [1] deals with fatty acid synthesis in isolated hepatocytes. The experiment in a line: In vitro fatty acid synthesis in isolated hepatocytes. Type of experiment: cell-based, Charles River female rat. The conditions noted are these: Rattus norvegicus, Hepatocyte, 1 h, pH 7.4; for activity at 500 µM: 0.5 mM; for activity at 1000 µM: 1.0 mM. As to the method: Hepatocytes were prepared from meal-fed Charles River female rats as described previously, [A. C. Sullivan, J. Triscari, J. G. Hamilton and J. A. Ontko (1977). Hypolipidemic activity of (-)-hydroxycitrate, Lipids, 12: 1-9]. Briefly, rats were anesthetized with Nembutal, livers were perfused in situ and hepatocytes were isolated in Krebs-Henseleit bicarbonate buffer, pH 7.4. Incubations with isolated hepatocytes were performed in triplicate at 37° C. Each incubation flask contained in a total volume of 2.1 ml, 10.5 mg cells (dry weight), 1 ml of Krebs-Henseleit buffer, pH 7.4, radioactive substrate (1 μCi [U-^14 C]alanine, 1 mCi^3 H2 O and 1 μmole alanine) and 0.3% glucose. The appropriate concentration of inhibitor was prepared in dimethylsulfoxide and added to the incubation flask. Dimethylsulfoxide had no effect on fatty acid synthesis. ^3 H2 O was used to determine the total rate of fatty acid synthesis independently of carbon precursors of acetyl CoA. [^14 C]alanine was used as an acetyl CoA precursor. Rates of fatty acid synthesis were determined as described previously, [A. C. Sullivan, J. Triscari, J. G. Hamilton and J. A. Ontko (1977). Hypolipidemic activity of (-)-hydroxycitrate, Lipids, 12: 1-9]. Data are expressed as nmoles ^3 H2 O or [^14 C]alanine converted into fatty acids per mg dry weight cells in 60 minutes.

A further experiment concerns the target T2, pancreatic lipase (Rattus norvegicus, UniProt P27657).
T2 construct: stimulated to release pancreatic proteins by addition of 10^-5 M carbachol; from tissue; host or cells: pancreatic lobules of fasted Charles River female rats; released pancreatic juice, centrifuged
T2 sequence (P27657 17-465): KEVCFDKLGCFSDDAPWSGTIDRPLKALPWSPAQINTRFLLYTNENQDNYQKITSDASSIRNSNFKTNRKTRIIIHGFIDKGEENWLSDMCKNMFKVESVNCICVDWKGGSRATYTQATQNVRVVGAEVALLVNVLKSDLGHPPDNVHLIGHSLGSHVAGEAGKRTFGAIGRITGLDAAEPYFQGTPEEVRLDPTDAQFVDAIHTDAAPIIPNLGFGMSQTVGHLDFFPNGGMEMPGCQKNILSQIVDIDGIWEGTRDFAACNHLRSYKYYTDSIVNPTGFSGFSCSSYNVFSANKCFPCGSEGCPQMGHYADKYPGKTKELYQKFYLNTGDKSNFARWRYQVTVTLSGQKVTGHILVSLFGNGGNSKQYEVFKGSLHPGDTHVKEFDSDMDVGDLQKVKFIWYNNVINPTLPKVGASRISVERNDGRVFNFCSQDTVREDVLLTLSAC
The experiment in a line: In vitro pancreatic lipase screen ([14C]-triolein assay). The conditions noted are these: read-out: Pancreatic Lipase Activity I50. Type of experiment: biochemical. On the procedure:
The method for assaying pacreatic lipase in vitro using [^14 C]-triolein was based on the method of Garfinkel and Schotz for lipoprotein lipase, [A. S. Garfinkel and M. C. Schotz (1972). […] Glycerol tri[1-^14 C]oleate (32 mM) was emulsified in 0.2 M Tris-HCl pH 8 containing 0.15 M NaCl, bovine serum albumin (15 mg/ml) and sodium taurocholate (1.4 mM) by sonication for three, one min intervals at 80 watts. Final assay volume was 1.0 ml. The reaction was initiated by the addition of enzyme and was allowed to proceed for 10 min. The reaction was linear for up to 20 min. The liberated free fatty acids were extracted into 0.1 M KOH and quantitated in a liquid scintillation counter using 2,5-bis-2-(5-tertbutylbenzoxazolyl)-tniophene (BBOT) scintillation fluid (Yorktown Research, South Hackensack, N.J.).
Ionophores were added to the above assay as solutions in either 90% ethanol or water, pH 8; 90% ethanol had no effect on the enzyme activity assayed by either method.

For experiment [2], the system named is intestinal absorption of triglycerides (corn oil). Put plainly: In vivo absorption of triglycerides (corn oil absorption).
Experiment [3] concerns meal-fed Charles River rats. Put plainly: Food consumption and serum parameters in meal-fed rats (in vivo fatty acid synthesis experiments). On the set-up: species or system Charles River rat. The conditions noted are these: 60 mg/kg i.p., sodium salt, mean ± SE. On the procedure:
(§1) In the following examples, female rats (Charles River CD strain, 180-200 g) were housed individually in wire bottom cages in a temperature (22°) and light (12 hr light and 12 hr dark) regulated room. They had free access to Purina Rodent Chow and water.
Faster enzymatic procedure for serum triglycerides, Clinical Chemistry, 21: 1983-1985], cholesterol, [C. C. Allain, L. Poon, S. G. Chan, W. Richmond and P. Fu (1974). Enzymatic determination of total serum cholesterol, Clinical Chemistry, 20: 470-475] and glucose, [R. Konig, H. Dauwalder and R. Richterich (1971). Vergleichende Bestimmunogen der Uringlucosekonzentration mit der Polarimetrie und einer enzymatischen Methode (Hexokinase/Glucose-6-Phosphat-Dehydrogenase), Schweiz. Med. Wschr., 101: 860-866] by enzymatic procedures.

Experiment [4] concerns hepatic fatty acid synthesis. The experiment in a line: In vivo hepatic fatty acid synthesis in meal-fed rats. On the set-up: species or system Charles River rat. The settings on record: 60 mg/kg i.p., sodium salt, mean ± SE. On the procedure:
as §1

Where [5] appears, read: read-out: Fatty Acid Synthesis 3H2O.
The mark [6] stands for this setting: read-out: Fatty Acid Synthesis [14C]alanine.
Where [7] appears, read: Experiment 1, di-(N-methylglucamine), 325 mg/kg p.o.
Setting [8] is: Experiment 1, ethanolate, 145 mg/kg p.o.
Where [9] appears, read: Experiment 1, sodium, 140 mg/kg p.o.

Like-named read-outs stand apart in the source and are kept apart here.

As for `CC[C@@H](C(=O)[C@@H](C)[C@@H](O)[C@H](C)CCc1c(Br)cc(C)c(O)c1C(=O)O)[C@H]1O[C@](CC)([C@H]2CC[C@](O)(CC)[C@H](C)O2)C[C@@H]1C` [Bromolasalocid, Ethanolate], on human pancreatic lipase, the Ki worked out at 100 µM.
With `CC[C@@H](C(=O)[C@@H](C)[C@@H](O)[C@H](C)CCc1c(Br)cc(C)c(O)c1C(=O)O)[C@H]1O[C@](CC)([C@H]2CC[C@](O)(CC)[C@H](C)O2)C[C@@H]1C` [Bromolasalocid, Na^+], at human pancreatic lipase, the Ki was found to be 50 µM. Further, in experiment [1] (setting [5]), the activity at 500 µM was 14% and the activity at 1000 µM was 22%. Also, in experiment [1] (setting [6]), the activity at 500 µM stood at 0% and the activity at 1000 µM was found to be 0%.
In the case of `CC[C@@H](C(=O)[C@@H](C)[C@@H](O)[C@H](C)CCc1c(Br)cc(C)c(O)c1C(=O)O)[C@H]1O[C@](CC)([C@H]2CC[C@](O)(CC)[C@H](C)O2)C[C@@H]1C` [Bromolasalocid, di-(N-methylglucamine)], the Ki on human pancreatic lipase worked out at 160 µM.
With `CC[C@@H](C(=O)[C@@H](C)[C@@H](O)[C@H](C)CCc1c(Br)cc(C)c(O)c1C(=O)O)[C@H]1O[C@](CC)([C@H]2CC[C@](O)(CC)[C@H](C)O2)C[C@@H]1C` [Bromolasalocid], on pancreatic lipase, the IC50 came to 600 µM. Also, the “Area under curve (corn oil absorption)” value in experiment [2] (setting [7]) turned out to be 660; in experiment [2] (setting [8]) it was 704; in experiment [2] (setting [9]) it was 659. Also, the “Area under curve, % of control” value is 60 % of control in experiment [2] (setting [7]), 64 % of control in experiment [2] (setting [8]) and 60 % of control in experiment [2] (setting [9]).
In the case of `CC[C@@H](C(=O)[C@@H](C)[C@@H](O)[C@H](C)CCc1ccc(C)c(OC(C)=O)c1C(=O)O)[C@H]1O[C@](CC)([C@H]2CC[C@](O)(CC)[C@H](C)O2)C[C@@H]1C` [Lasalocid Acetate], the IC50 on pancreatic lipase stood at 120 µM.
As to `CCCCCCC(=O)Oc1c(C)ccc(CC[C@@H](C)[C@H](O)[C@H](C)C(=O)[C@H](CC)[C@H]2O[C@](CC)([C@H]3CC[C@](O)(CC)[C@H](C)O3)C[C@@H]2C)c1C(=O)O` [Lasalocid Heptanoate], on pancreatic lipase, the IC50 was found to be 220 µM.
On the same count and under the same terms, the value for `CCCCCC(=O)Oc1c(C)ccc(CC[C@@H](C)[C@H](O)[C@H](C)C(=O)[C@H](CC)[C@H]2O[C@](CC)([C@H]3CC[C@](O)(CC)[C@H](C)O3)C[C@@H]2C)c1C(=O)O` [Lasalocid Hexanoate] was 200 µM; that for `CCCCCCCC(=O)Oc1c(C)ccc(CC[C@@H](C)[C@H](O)[C@H](C)C(=O)[C@H](CC)[C@H]2O[C@](CC)([C@H]3CC[C@](O)(CC)[C@H](C)O3)C[C@@H]2C)c1C(=O)O` [Lasalocid Octanoate] was 110 µM.
`CCCCCCCCCCCCCCCCCC(=O)Oc1c(C)ccc(CC[C@@H](C)[C@H](O)[C@H](C)C(=O)[C@H](CC)[C@H]2O[C@](CC)([C@H]3CC[C@](O)(CC)[C@H](C)O3)C[C@@H]2C)c1C(=O)O` [Lasalocid Stearate]: at pancreatic lipase, the IC50 came to 110 µM.
In the case of `CCC(C(=NOC)C(C)C(O)C(C)CCc1ccc(C)c(O)c1C(=O)O)C1OC(CC)(C2CCC(O)(CC)C(C)O2)CC1C` (stereo not shown) [Lasalocid methoxime], at pancreatic lipase, the IC50 was determined as 200 µM.
Take `CC[C@@H](C(=O)[C@@H](C)[C@@H](O)[C@H](C)CCc1ccc(C)c(O)c1C(=O)O)[C@H]1O[C@](CC)([C@H]2CC[C@](O)(CC)[C@H](C)O2)C[C@@H]1C` [Lasalocid]: at pancreatic lipase, the IC50 was determined as 100 µM.
With `CO[C@@H]1C[C@@H](C[C@H]2CC[C@H](C)[C@H]([C@@H](C)C(=O)O)O2)O[C@]2(O[C@](C)([C@H]3CC[C@@](C)([C@@H]4O[C@@H]([C@H]5O[C@@](O)(CO)[C@H](C)C[C@@H]5C)C[C@@H]4C)O3)C[C@H]2C)[C@@H]1C` [Nigericin], the IC50 on pancreatic lipase is 2500 µM.
As to `CC[C@@H](C(=O)[C@@H](C)[C@@H](O)[C@H](C)CCc1c([N+](=O)[O-])cc(C)c(O)c1C(=O)O)[C@H]1O[C@](CC)([C@H]2CC[C@](O)(CC)[C@H](C)O2)C[C@@H]1C` [Nitrolasalocid], the IC50 at pancreatic lipase is 1320 µM.
`CC/C(=C\C=C\[C@@H]1C=C[C@@H]2[C@@H](CC)CC[C@H]2[C@@H]1C(=O)c1ccc[nH]1)[C@@H]1O[C@@H]([C@@H](C)C(=O)O)CC[C@@H]1C` [X-14547A]: the IC50 at pancreatic lipase came to 700 µM.
Same read-out and setting: the value for Lysocellin was 800 µM.
As to Monensin, the “Food Consumption” value in experiment [3] is 16.1 ± 1.4 g. Also, in experiment [4], the “Fatty Acid Synthesis 3H2O converted” value is recorded as 14.8 ± 4.0 μmoles per 1 g liver in 30 min and the “Fatty Acid Synthesis [14C]alanine converted” value was 209 ± 64 nmoles per 1 g liver in 30 min.
